Experimental data from BindingDB's records for patent WO2022098806 (MERCK SHARP & DOHME LLC, 2022).
“And” between values parts separate entries of the source, which are not always exact repeats. Equal values may be shown once.

molecular target: Mitogen-activated protein kinase kinase kinase kinase 1 (Homo sapiens, UniProt Q92918); experiment: HPK1-SLP76 TR-FRET ASSAY
Sequence (Q92918 whole entry): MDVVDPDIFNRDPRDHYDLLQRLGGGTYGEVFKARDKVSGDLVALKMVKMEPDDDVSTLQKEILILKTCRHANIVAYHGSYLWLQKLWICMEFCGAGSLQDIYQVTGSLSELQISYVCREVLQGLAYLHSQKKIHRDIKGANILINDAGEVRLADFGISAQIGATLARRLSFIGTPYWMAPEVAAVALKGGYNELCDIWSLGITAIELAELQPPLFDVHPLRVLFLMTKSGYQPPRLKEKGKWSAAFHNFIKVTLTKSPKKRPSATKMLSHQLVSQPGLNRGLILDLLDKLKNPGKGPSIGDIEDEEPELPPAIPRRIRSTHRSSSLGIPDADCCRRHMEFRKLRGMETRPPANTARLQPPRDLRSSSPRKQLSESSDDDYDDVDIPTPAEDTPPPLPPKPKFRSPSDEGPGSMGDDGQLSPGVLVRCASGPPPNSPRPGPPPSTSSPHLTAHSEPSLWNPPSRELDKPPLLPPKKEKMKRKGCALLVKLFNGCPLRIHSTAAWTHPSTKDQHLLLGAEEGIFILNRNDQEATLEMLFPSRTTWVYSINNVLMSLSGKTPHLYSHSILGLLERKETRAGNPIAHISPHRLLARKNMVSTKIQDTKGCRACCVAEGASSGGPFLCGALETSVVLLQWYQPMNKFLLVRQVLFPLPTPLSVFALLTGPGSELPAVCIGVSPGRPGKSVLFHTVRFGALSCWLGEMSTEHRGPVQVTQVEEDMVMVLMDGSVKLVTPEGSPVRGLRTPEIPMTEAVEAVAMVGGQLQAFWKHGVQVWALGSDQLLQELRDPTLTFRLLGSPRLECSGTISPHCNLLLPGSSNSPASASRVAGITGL

| Compound | IC50 |
| --- | --- |
| COc1cc2c(cc1Nc1ncc3ccc(NCC4(C)CCOC4)cc3n1)CN(C)CC2 (centres undefined) [WO2022098806, Compound 3-75] | 90 nM |
| COc1cc2c(cc1Nc1ncc3ccc(Nc4cccc(CO)c4)cc3n1)CN(C)CC2 [WO2022098806, Compound 3-31] | 29 nM |
| CC[C@H]1COC(=O)N1c1ccc2cnc(Nc3cc4c(cc3OC)CCN(C)C4)nc2c1 [WO2022098806, Compound 3-14] | 25 nM |
| Cc1c(-c2cc3nc(Nc4ccc5c(c4)C4CCC5N4C)ncc3c(N)c2F)cnc2c1NCCO2 (centres undefined) [WO2022098806, Compound 2-121] | 0.02 nM |
| COc1cc2c(cc1Nc1ncc3ccc(NCC4(C)CCC4)cc3n1)CN(C)CC2 [WO2022098806, Compound 3-62] | 111 nM |
| COc1cc2c(cc1Nc1ncc3ccc(-c4cncc5cccnc45)cc3n1)CN(C)CC2 [WO2022098806, Compound 1-24] | 10 nM |
| COc1cc([C@H](C)S(C)(=O)=O)ccc1Nc1ncc2c(N)c(F)c(-c3cnc4c(c3C)NCCO4)cc2n1 [WO2022098806, Compound 2-55] | 1.62 nM |
| Cc1c(-c2cc3nc(Nc4ccc([C@H]5CCN(C)C5=O)cc4)ncc3cc2F)cnc2c1NCCO2 [WO2022098806, Compound 1-127] | 0.95 nM |
| COc1cc2c(cc1Nc1ncc3ccc(-c4cccc(S(=O)(=O)N5CCCCC5)c4)cc3n1)CNCC2 [WO2022098806, Compound 1-82] | 15 nM |
| CNC(=O)c1ccc(Nc2ncc3c(N)c(F)c(-c4cnc5c(c4C)NCCO5)c(Cl)c3n2)c(OC)c1 [WO2022098806, Compound 2-98] | 6.73 nM |
| CNCC1CN(c2ccc3cnc(Nc4cc5c(cc4OC)CCN(C)C5)nc3c2)C(=O)O1 (centres undefined) [WO2022098806, Compound 3-12] | 94 nM |
| COc1cc2c(cc1Nc1ncc3ccc(N4CC(C)(CO)OC4=O)cc3n1)CN(C)CC2 (centres undefined) [WO2022098806, Compound 3-7] | 45 nM |
| COc1cc2c(cc1Nc1ncc3ccc(Nc4cccc(S(C)(=O)=O)c4)cc3n1)CN(C)CC2 [WO2022098806, Compound 3-33] | 18 nM |
| Cc1c(-c2cc3nc(Nc4ccc5c(c4)CN(C)CC54CC4)ncc3c(N)c2F)cnc2c1NCCO2 [WO2022098806, Compound 2-151] | 0.05 nM and 0.27 nM |
| COc1cc2c(cc1Nc1ncc3c(N)c(F)c(-c4cc5oc(=O)[nH]c5cc4C)cc3n1)CN(C)CC2 [WO2022098806, Compound 2-49] | 10 nM |
| COc1cc2c(cc1Nc1ncc3ccc(-c4cccc(C5CCC(=O)N5)c4)cc3n1)CN(C)CC2 (centres undefined) [WO2022098806, Compound 1-99] | 120 nM |
| COc1nc(C2(C#N)CC2)ccc1Nc1ncc2c(N)c(F)c(-c3cnc4c(c3C)NCCO4)cc2n1 [WO2022098806, Compound 2-68] | 14 nM |
| COc1cc2c(cc1Nc1ncc3c(N)c(F)c(-c4ccccc4-c4ccnn4C)cc3n1)CN(C)CC2 [WO2022098806, Compound 2-65] | 17 nM |
| CCS(=O)(=O)Cc1ccc(Nc2ncc3c(N)c(F)c(-c4cnc5c(c4C)NCCO5)cc3n2)c(F)c1 [WO2022098806, Compound 2-125] | 0.1 nM and 0.45 nM and 0.09 nM |
| COc1cc2c(cc1Nc1ncc3ccc(Nc4cccc(CO)n4)cc3n1)CN(C)CC2 [WO2022098806, Compound 3-29] | 21 nM |
| COc1cc2c(cc1Nc1ncc3ccc(-c4cnn(C(F)F)c4)cc3n1)CN(C)CC2 [WO2022098806, Compound 1-26] | 11 nM |
| COc1cc2c(cc1Nc1ncc3ccc(NC4CCN(C)C4=O)cc3n1)CN(C)CC2 (centres undefined) [WO2022098806, Compound 3-49] | 97 nM and 98 nM |
| COc1cc2c(cc1Nc1ncc3ccc(NCC4CCC(=O)N4)cc3n1)CN(C)CC2 (centres undefined) [WO2022098806, Compound 3-45] | 292 nM |
| COc1cc2c(cc1Nc1ncc3ccc(Oc4ccc5c(c4)CNCC5)cc3n1)CN(C)CC2 [WO2022098806, Compound 4-9] | 2.19 nM |
| COc1cc2c(cc1Nc1ncc3ccc(NC[C@@H]4CC(=O)N(C)C4)cc3n1)CN(C)CC2 [WO2022098806, Compound 3-59] | 365 nM |
| CCCC(=O)Nc1cncc(-c2ccc3cnc(Nc4cc5c(cc4OC)CCNC5)nc3c2)c1 [WO2022098806, Compound 1-52] | 11 nM |
| COc1cc2c(cc1Nc1ncc3ccc(N4CC5(CCOC5)OC4=O)cc3n1)CN(C)CC2 (centres undefined) [WO2022098806, Compound 3-3] | 391 nM |
| COc1cc2c(cc1Nc1ncc3ccc(Nc4cccc(C#N)n4)cc3n1)CN(C)CC2 [WO2022098806, Compound 3-27] | 23 nM |
| Cc1c(-c2cc3nc(Nc4ccc(CS(C)(=O)=O)cc4)ncc3c(N)c2F)cnc2c1NCCO2 [WO2022098806, Compound 2-114] | 0.05 nM and 0.07 nM and 0.04 nM |
| COc1cc2c(cc1Nc1ncc3ccc(-c4cccc(S(=O)(=O)N5CCOCC5)c4)cc3n1)CNCC2 [WO2022098806, Compound 1-77] | 25 nM |

The remaining compounds from weak to strong by IC50, led by results:

| IC50 | Compound |
| --- | --- |
| 0.7 nM | COc1cc2c(cc1Nc1ncc3c(N)c(F)c(-c4cnc5c(c4C)NCCO5)cc3n1)C(C)N(C)C(C)C2 (centres undefined) [WO2022098806, Compound 2-48] |
| 0.68 nM | Cc1c(-c2cc3nc(Nc4ccc([C@@H](C)S(C)(=O)=O)cc4)ncc3cc2F)cnc2c1NCCO2 [WO2022098806, Compound 1-126] |
| 0.27 nM | Cc1c(-c2cc3nc(Nc4ccccc4)ncc3c(N)c2F)cnc2c1NCCO2 [WO2022098806, Compound 2-25] |
| 0.26 nM | CNC(=O)C1(c2ccc(Nc3ncc4cc(F)c(-c5cnc6c(c5C)NCCO6)cc4n3)cc2)CCC1 [WO2022098806, Compound 1-121] |
| 0.22 nM | CNC(=O)[C@@H](C)c1ccc(Nc2ncc3cc(F)c(-c4cnc5c(c4C)NCCO5)cc3n2)cc1 [WO2022098806, Compound 1-116] |
| 0.19 nM | Cc1c(-c2cc3nc(Nc4cccc(S(=O)(=O)NC(C)(C)C)c4)ncc3c(N)c2F)cnc2c1NCCO2 [WO2022098806, Compound 2-33] |
| 0.19 nM | Cc1ccncc1-c1cc2nc(Nc3ccc(CS(C)(=O)=O)cc3)ncc2c(N)c1F [WO2022098806, Compound 2-44] |
| 0.15 nM | CC(=O)N1CCC[C@@H]1c1ccc(Nc2ncc3c(N)c(F)c(-c4cnc5c(c4C)NCCO5)cc3n2)cc1 [WO2022098806, Compound 2-28] |
| 0.12 nM | COc1ncccc1Nc1ncc2c(N)c(F)c(-c3cnc4c(c3C)NCCO4)cc2n1 [WO2022098806, Compound 2-27] |
| 0.12 nM | CNS(=O)(=O)c1cccc(Nc2ncc3c(N)c(F)c(-c4cnc5c(c4C)NCCO5)cc3n2)c1 [WO2022098806, Compound 2-34] |
| 0.12 nM | COc1cc2c(cc1Nc1ncc3c(N)c(F)c(-c4cnc5c(c4C)NCCO5)cc3n1)CN(C(C)C)CC2 [WO2022098806, Compound 2-72] |
| 0.11 nM | CC(=O)N1CCCc2cc(Nc3ncc4c(N)c(F)c(-c5cnc6c(c5C)NCCO6)cc4n3)ccc21 [WO2022098806, Compound 2-7] |
| 0.1 nM | COc1cc(S(C)(=O)=O)ccc1Nc1ncc2c(N)cc(N3C(=O)OC[C@H]3C)cc2n1 [WO2022098806, Compound 3-76] |
| 0.1 nM | Cc1c(-c2cc3nc(Nc4ccc(CS(=O)(=O)C5CC5)cc4)ncc3c(N)c2F)cnc2c1NCCO2 [WO2022098806, Compound 2-136] |
| 0.09 nM | Cc1c(-c2c(F)c(N)c3cnc(Nc4cc5c(cc4F)CCN(C)C5)nc3c2Cl)cnc2c1NCCO2 [WO2022098806, Compound 2-184] |
| 0.09 nM | Cc1c(-c2cc3nc(Nc4ccc(CC(C)(C)O)cc4)ncc3c(N)c2F)cnc2c1NCCO2 [WO2022098806, Compound 2-178] |
| 0.08 nM | CC(=O)N[C@H]1CCc2cc(Nc3ncc4c(N)c(F)c(-c5cnc6c(c5C)NCCO6)cc4n3)ccc21 [WO2022098806, Compound 2-11] |

| IC50 | Compound |
| --- | --- |
| 0.08 nM | Cc1c(-c2cc3nc(Nc4ccc(CC(=O)N5CCOCC5)cc4)ncc3cc2F)cnc2c1NCCO2 [WO2022098806, Compound 1-133] |
| 0.08 nM | COc1cc2c(cc1Nc1ncc3c(N)cc(N4C(=O)OC[C@@H]4C)cc3n1)CN(C)CC2 [WO2022098806, Compound 3-17] |
| 0.08 nM | COC1CC(NC(=O)c2ccc(Nc3ncc4c(N)c(F)c(-c5cnc6c(c5C)NCCO6)cc4n3)cc2)C1 (centres undefined) [WO2022098806, Compound 2-58] |
| 0.05 nM | Cc1c(-c2cc3nc(Nc4ccc5c(c4)CN(C(C)C)CC5)ncc3c(N)c2F)cnc2c1NCC(C)O2 (centres undefined) [WO2022098806, Compound 2-145] |
| 0.05 nM | Cc1c(-c2cc3nc(Nc4cc5c(cc4F)CCN(C)C5)ncc3c(N)c2F)cnc2c1NCCO2 [WO2022098806, Compound 2-59] |
| 0.05 nM | CNC(=O)c1ccc(Nc2ncc3c(N)c(F)c(-c4cnc5c(c4C)NCCO5)cc3n2)cc1 [WO2022098806, Compound 2-23] |
| 0.05 nM | Cc1c(N)cncc1-c1cc2nc(Nc3ccc4c(c3)CN(C)CC43CC3)ncc2c(N)c1F [WO2022098806, Compound 2-153] |
| 0.05 nM | Cc1c(-c2cc3nc(Nc4cc5c(cc4F)CCN(C(C)C)C5)ncc3c(N)c2F)cnc2c1NCCO2 [WO2022098806, Compound 2-171] |
| 0.05 nM | Cc1c(-c2cc3nc(Nc4ccc(CS(C)(=O)=O)cc4)ncc3cc2F)cnc2c1NCCO2 [WO2022098806, Compound 1-115] |
| 0.04 nM | CNC(=O)C1(c2ccc(Nc3ncc4c(N)c(F)c(-c5cnc6c(c5C)NCCO6)cc4n3)cc2)CC1 [WO2022098806, Compound 2-81] |
| 0.04 nM | CCS(=O)(=O)Cc1ccc(Nc2ncc3ccc(-c4cnc5c(c4C)NCCO5)cc3n2)cc1 [WO2022098806, Compound 1-134] |
| 0.04 nM | Cc1c(-c2cc3nc(Nc4ccc5c(c4)CN(C)[C@H](C)C5)ncc3c(N)c2F)cnc2c1NCCO2 [WO2022098806, Compound 2-86] |
| 0.04 nM | Cc1c(-c2cc3nc(Nc4ccc([S+](C)[O-])cc4)ncc3c(N)c2F)cnc2c1NCCO2 (centres undefined) [WO2022098806, Compound 2-170] |
| 0.04 nM | Cc1c(-c2cc3nc(Nc4ccc5c(c4)CCN(C)CC5)ncc3c(N)c2F)cnc2c1NCCO2 [WO2022098806, Compound 2-119] |
| 0.03 nM | Cc1c(-c2cc3nc(Nc4ccc5c(c4)CN(C(C)C)CC5)ncc3c(N)c2F)cnc2c1NCCO2 [WO2022098806, Compound 2-76] |
| 0.01 nM | Cc1c(-c2c(F)c(N)c3cnc(Nc4ccc5c(c4)CN(C)CC54CC4)nc3c2Cl)cnc2c1NCCO2 [WO2022098806, Compound 2-108] |
| 0.01 nM | Cc1c(-c2cc3nc(Nc4ccc5c(c4)CNCCC5)ncc3c(N)c2F)cnc2c1NCCO2 [WO2022098806, Compound 2-120] |
